Experimental findings from patent EP0187619A2, “1,3-Disubstituted tetrahydropyridines” (priority 1985, dated 1986) are described below.

The test system of assay [1] is amnesiogene Wirkung eines Elektroschocks. As to the kind of experiment: Two-compartment test: protection against electroshock-induced amnesia. Format: in vivo, Maus. The settings on record: for antiamnesiogener Effekt: significance by Mann-Whitney U test. The method, then: So vermindern sie an der Maus in Dosen ab etwa 0,1 mg/kg i.p. sowie p.o. die amnesiogene Wirkung eines Elektroschocks in mindestens gleichem Ausmass wie nach Verabfolgung einer nootrop wirksamen Dosis von Piracetam (100 mg/kg i.p.). Zum Nachweis der nootropen Wirkung kann beispielsweise der Two-Compartment-Test herangezogen werden.
Als Literatur über pharmakologische Modelle dieser Art seien z.B. genannt: S.J. Sara und D. Lefevre, Paychopharmacologia 25, 32-40 (1972), Hypoxia-induced amnesia in one-trial learning and pharmacological protection by piracetam. Boggan, W.O., und Schlesinger, K., in Behavioral Biology 12, 127-134 (1974).

A short description of assay [2]: Step-down Passive Avoidance Test (Mondadori and Waser): memory improvement. Format: in vivo. The following applies: for Gedächtnisverbesserung: significance by Mann-Whitney U test; for Dosis, um die gedächtnisverbessernde Wirkung von 0,1 mg/kg i.p. von 1-[2-(Indol-3-yl)ethyl]-1,2,5,6,-tetrahydro-pyridin-3-carbonsauremethylester zu erzielen / Dosis relativ zu 1-[2-(Indol-3-yl)ethyl]-1,2,5,6,-tetrahydro-pyridin-3-carbonsauremethylester für gleiche gedächtnisverbessernde Wirkung: i.p.; for Dosis relativ zu 1-[2-(Indol-3-yl)ethyl]-1,2,5,6,-tetrahydro-pyridin-3-carbonsauremethylester für gleiche gedächtnisverbessernde Wirkung: 10 mg/kg versus 0,1 mg/kg. The method, then:
Insbesondere zeigen die Verbindungen der Formel I eine starke gedächtnisverbessernde Wirkung im Step-down Passive Avoidance Test nach Mondadori und Waser, Psychopharmacology 63, 297-300 (1979). Die Substanzen sind wirksam bei intraperitonealer Gabe 30 Minuten vor dem Lernversuch (wirksame Dosen 0,1, 1, 10 mg/kg). Eine deutliche Wirkung war auch feststellbar bei peroraler Applikation 60 Minuten vor dem Lernversuch (wirksame Dosen 0,1, 1, 10 mg/kg) sowie bei intraperitonealer Applikation unmittelbar nach dem Lernversuch (wirksame Dosen 0,1, 1, 10 mg/kg). […] Daraus ergibt sich, dass, um die gedächtnisverbessernde Wirkung von 0,1 mg/kg i.p. von 1-[2-(Indol-3-yl)ethyl]-1,2,5,6,-tetrahydro-pyridin-3-carbonsauremethylester zu erzielen, 10 mg/kg i.p., d.h. die 100-fache Dosis eines Isomeren A, B und C benötigt werden. Die Signifikanzangaben beziehen sich, ebenso wie im vorhergehenden Absatz, auf den U-Test von Mann und Whitney.

As for `COC(=O)C1=CCCN(CCc2c[nH]c3ccccc23)C1` [1-[2-(Indol-3-yl)ethyl]-1,2,5,6-tetrahydro-pyridin-3-carbonsäuremethylester], the “antiamnesiogener Effekt” value in assay [1] (0,1 mg/kg i.p.) and in assay [1] (1,0 mg/kg i.p.) was “hochsignifikanten (p<0,01) antiamnesiogenen Effekt” each time. The Gedächtnisverbesserung entry in assay [2] (0,1 mg/kg i.p.) was “signifikante (p<0,05)”; in assay [2] (10 mg/kg i.p.) it was “hochsignifikante (p<0,01)”; in assay [2] (1,0 mg/kg i.p.) it was “signifikante (p<0,05)”.
As for `COC(=O)C1=CN(CCc2c[nH]c3ccccc23)CCC1` [Isomere A, 1-(2-(Indol-3-yl)-ethyl]-1,4,5,6-tetrahydro-pyridin-3-carbonsäuremethylester], the “antiamnesiogener Effekt” value in assay [1] (0,1 mg/kg i.p.) is reported as “keinen signifikanten”; in assay [1] (10 mg/kg i.p.), “keinen signifikanten”; in assay [1] (1,0 mg/kg i.p.) it was “gewissen (nur einseitig signifikanten)”. Moreover, the Gedächtnisverbesserung entry in assay [2] (0,1 mg/kg i.p.) was “keinen”; in assay [2] (10 mg/kg i.p.), “signifikanten (p<0,05) Effekt”; in assay [2] (1,0 mg/kg i.p.), “keinen”. Besides, the “Dosis, um die gedächtnisverbessernde Wirkung von 0,1 mg/kg i.p. von 1-[2-(Indol-3-yl)ethyl]-1,2,5,6,-tetrahydro-pyridin-3-carbonsauremethylester zu erzielen” value in assay [2] came to 10 mg/kg. Moreover, in assay [2], the “Dosis relativ zu 1-[2-(Indol-3-yl)ethyl]-1,2,5,6,-tetrahydro-pyridin-3-carbonsauremethylester für gleiche gedächtnisverbessernde Wirkung” value is 100 -fache Dosis.
Regarding `CCOC(=O)C1=CCCN(Cc2c[nH]c3ccccc23)C1` [Isomere B, 1-(Indol-3-yl)methyl-l,2,5,6-tetrahydro-pyridin-3-carbonsäureethylester], the “antiamnesiogener Effekt” value was “ähnlichen, jedoch weniger signifikanten (p<0,05) Effekt” in assay [1] (0,1 mg/kg i.p.); “ähnlichen, jedoch weniger signifikanten (p<0,05) Effekt” in assay [1] (10 mg/kg i.p.); “ähnlichen, jedoch weniger signifikanten (p<0,05) Effekt” in assay [1] (1,0 mg/kg i.p.). Also, the Gedächtnisverbesserung entry in assay [2] (0,1 mg/kg i.p.) is on record as “keinen”; in assay [2] (10 mg/kg i.p.), “signifikanten (p<0,05) Effekt”; in assay [2] (1,0 mg/kg i.p.) it was “keinen”. Besides, in assay [2], the “Dosis, um die gedächtnisverbessernde Wirkung von 0,1 mg/kg i.p. von 1-[2-(Indol-3-yl)ethyl]-1,2,5,6,-tetrahydro-pyridin-3-carbonsauremethylester zu erzielen” value came to 10 mg/kg. Moreover, the “Dosis relativ zu 1-[2-(Indol-3-yl)ethyl]-1,2,5,6,-tetrahydro-pyridin-3-carbonsauremethylester für gleiche gedächtnisverbessernde Wirkung” value in assay [2] is reported as 100 -fache Dosis.
As to `COC(=O)C1=CCN(CCc2c[nH]c3ccccc23)CC1` [Isomere C, 1-[2-(Indol-3-yl)ethyl]-1,2,5,6-tetrahydro-pyridin-4-carbonsäuremethylester], the “antiamnesiogener Effekt” value in assay [1] (0,1 mg/kg i.p.), in assay [1] (10 mg/kg i.p.) and in assay [1] (1,0 mg/kg i.p.) was “keine signifikante antiamnesiogene Wirkung” each time. Also, the Gedächtnisverbesserung entry in assay [2] (0,1 mg/kg i.p.) was “keinen”; in assay [2] (10 mg/kg i.p.) it was “signifikanten (p<0,05) Effekt”; in assay [2] (1,0 mg/kg i.p.) it was “keinen”. Moreover, the “Dosis, um die gedächtnisverbessernde Wirkung von 0,1 mg/kg i.p. von 1-[2-(Indol-3-yl)ethyl]-1,2,5,6,-tetrahydro-pyridin-3-carbonsauremethylester zu erzielen” value in assay [2] is given as 10 mg/kg. The “Dosis relativ zu 1-[2-(Indol-3-yl)ethyl]-1,2,5,6,-tetrahydro-pyridin-3-carbonsauremethylester für gleiche gedächtnisverbessernde Wirkung” value in assay [2] is recorded as 100 -fache Dosis.
`NC(=O)CN1CCCC1=O` [Piracetam]: the “nootrop wirksame Dosis” value in assay [1] (Maus, i.p., reference) was found to be 100 mg/kg.
